Measurements taken from patent US9051310B2, “Nicotinamide derivative or salt thereof” (FUJIFILM Corporation, priority 2011, dated 2015).

Columns and labels:
[1] = target: T1, glutathione S-transferase (GST)-linked full-length human Syk protein (Homo sapiens, UniProt P43405); assay: Syk enzyme assay; type: biochemical; details: 0.83 nM Syk, time-resolved fluorescence; read-out: IC50 of Syk-inhibitory activity
T1 construct: glutathione S-transferase (GST)-linked full-length human Syk protein; purchased Carna Biosciences; host or cells: Baculovirus expression system
In short: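 Phosphotyrosine on a biotin-peptide substrate (0.5 μM) was read by time-resolved fluorescence at 615 and 665 nm with Eu-anti-pTyr antibody and APC-streptavidin after 1 h EDTA stop.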

[2] = tested on: THP-1 cells (phagocytosis of opsonized Escherichia coli); assay: Antibody-dependent phagocytosis assay; type: cell-based; details: Homo sapiens; IFNγ differentiated THP-1 cells, opsonized pHrodo Escherichia coli, 3 hours; read-out: IC50 upon phagocytosis inhibition
Experimental: THP-1 cells (2×10^5 cells/ml), which were human monocytoid cells, were cultured in the presence of 10 ng/ml IFNγ for 2 days, and they were induced to differentiate into macrophage-like cells. The differentiation-induced THP-1 cells were recovered, and the cells (5×10^4 cells/well) were then allowed to react with a predetermined concentration of test compound at room temperature for 30 minutes. Thereafter, Escherichia coli (Life Technologies) labeled with a pH-sensitive dye (pHrodo) was subjected to opsonization using an anti-Escherichia coli antibody (Life Technologies). Then, the resultant was added to the THP-1 cells obtained above, followed by incubation at 37° C. for 3 hours. Opsonized Escherichia coli and cell-permeable fluorescent dye (Calcein AM) were simultaneously added thereto, followed by quantitative determination of phagocytosis of opsonized Escherichia coli in viable cells using an IN Cell Analyzer.

| IC50 [1] | IC50 [2] | Structure (SMILES) |
| --- | --- | --- |
| 0.01 to 0.05 µM | 1 to 3 µM | CCC[C@@H](Nc1nc(Nc2cnc(OC)c(-n3ccnn3)c2)c(C(N)=O)cc1F)[C@H](C)N [Example 2-205, 6-(((2S,3R)-2-aminohexan-3-yl)amino)-5-fluoro-2-((6-methoxy-5-(1H-1,2,3-triazol-1-yl)pyridin-3-yl)amino)nicotinamide] |
| 0.01 to 0.05 µM | 1 to 3 µM | CCCC[C@@H](Nc1nc(Nc2cnc3c(c2)c(N(C)C)nn3C)c(C(N)=O)cc1F)[C@H](C)N [Example 2-291, 6-(((2S,3R)-2-aminoheptan-3-yl)amino)-2-((3-(dimethylamino)-1-methyl-1H-pyrazolo[3,4-b]pyridin-5-yl)amino)-5-fluoronicotinamide] |
| < 0.01 µM | 1 to 3 µM | CC(C)C[C@@H](Nc1nc(Nc2cnc3c(c2)c(N(C)C)nn3C)c(C(N)=O)cc1F)[C@H](C)N [Example 2-292, 6-(((2S,3R)-2-amino-5-methylhexan-3-yl)amino)-2-((3-(dimethylamino)-1-methyl-1H-pyrazolo[3,4-b]pyridin-5-yl)amino)-5-fluoronicotinamide] |
| < 0.01 µM | 1 to 3 µM | CCC[C@@H](Nc1nc(Nc2cccc3c2cnn3CCOC)c(C(N)=O)cc1F)[C@H](C)N [Example 2-305, 6-(((2S,3R)-2-aminohexan-3-yl)amino)-5-fluoro-2-((1-(2-methoxyethyl)-1H-indazol-4-yl)amino)nicotinamide] |
| < 0.01 µM | 1 to 3 µM | CC[C@@H](Nc1nc(Nc2cncc3c2cnn3CC)c(C(N)=O)cc1F)[C@H](C)N [Example 2-318, 6-(((2S,3R)-2-aminopentan-3-yl)amino)-2-((1-ethyl-1H-pyrazolo[3,4-c]pyridin-4-yl)amino)-5-fluoronicotinamide] |
| 0.01 to 0.05 µM | 1 to 3 µM | CCn1ncc2c(Nc3nc(N[C@H](COC)[C@H](C)N)c(F)cc3C(N)=O)cncc21 [Example 2-323, 6-(((2S,3S)-3-amino-1-methoxybutan-2-yl)amino)-2-((1-ethyl-1H-pyrazolo[3,4-c]pyridin-4-yl)amino)-5-fluoronicotinamide] |
| 0.01 to 0.05 µM | 1 to 3 µM | CSCC[C@@H](Nc1nc(Nc2cnc(C)c(-n3nccn3)c2)c(C(N)=O)cc1F)[C@H](C)N [Example 2-343, 6-(((3R,4S)-4-amino-1-(methylthio)pentan-3-yl)amino)-5-fluoro-2-((6-methyl-5-(2H-1,2,3-triazol-2-yl)pyridin-3-yl)amino)nicotinamide] |
| < 0.01 µM | 1 to 3 µM | CCC[C@@H](Nc1nc(Nc2ccc3c(c2)c(OC(F)F)nn3C)c(C(N)=O)cc1F)[C@H](C)N [Example 2-349, 6-(((2S,3R)-2-aminohexan-3-yl)amino)-2-((3-(difluoromethoxy)-1-methyl-1H-indazol-5-yl)amino)-5-fluoronicotinamide] |

More lines, now with the values behind:

| Structure (SMILES) | IC50 [1] | IC50 [2] |
| --- | --- | --- |
| COC[C@@H](Nc1nc(Nc2cnc(C)c(-n3nccn3)c2)c(C(N)=O)cc1F)[C@H](C)N [Example 2-197, 6-(((2S,3S)-3-amino-1-methoxybutan-2-yl)amino)-5-fluoro-2-((6-methyl-5-(2H-1,2,3-triazol-2-yl)pyridin-3-yl)amino)nicotinamide] | 0.01 to 0.05 µM | 3 to 6 µM |
| NC(=O)c1cc(F)c(N[C@@H]2CCOC[C@@H]2N)nc1Nc1cnc(N2CCOCC2)c(F)c1 [Example 2-217, 6-(((3R,4R)-3-aminotetrahydro-2H-pyran-4-yl)amino)-5-fluoro-2-((5-fluoro-6-morpholinopyridin-3-yl)amino)nicotinamide] | 0.05 to 0.1 µM | 1 to 3 µM |
| NC(=O)c1cc(F)c(N[C@@H]2CCOC[C@@H]2N)nc1Nc1ccnc(N2CCOCC2)c1F [Example 2-231, 6-(((3R,4R)-3-aminotetrahydro-2H-pyran-4-yl)amino)-5-fluoro-2-((3-fluoro-2-morpholinopyridin-4-yl)amino)nicotinamide] | 0.01 to 0.05 µM | 1 to 3 µM |
| CC(C)C[C@@H](Nc1nc(Nc2cc(N3CCOCC3)ncc2F)c(C(N)=O)cc1F)[C@H](C)N [Example 2-236, 6-(((2S,3R)-2-amino-5-methylhexan-3-yl)amino)-5-fluoro-2-((5-fluoro-2-morpholinopyridin-4-yl)amino)nicotinamide] | 0.01 to 0.05 µM | 1 to 3 µM |
| NC(=O)c1cc(F)c(N[C@@H]2CCCC[C@@H]2N)nc1Nc1cnc(OC(F)F)c(-n2nccn2)c1 [Example 2-238, 6-(((1R,2S)-2-aminocyclohexyl)amino)-2-((6-(difluoromethoxy)-5-(2H-1,2,3-triazol-2-yl)pyridin-3-yl)amino)-5-fluoronicotinamide] | 0.01 to 0.05 µM | < 1 µM |
| C[C@H](N)[C@H](Nc1nc(Nc2ccc3ncccc3c2)c(C(N)=O)cc1F)c1ccccc1 [Example 2-312, 6-(((1R,2S)-2-amino-1-phenylpropyl)amino)-5-fluoro-2-(quinolin-6-ylamino)nicotinamide] | < 0.01 µM | < 1 µM |
| Cc1ncc(Nc2nc(N[C@H](c3ccccc3)[C@H](C)N)c(F)cc2C(N)=O)cc1-n1nccn1 [Example 2-313, 6-(((1R,2S)-2-amino-1-phenylpropyl)amino)-5-fluoro-2-((6-methyl-5-(2H-1,2,3-triazol-2-yl)pyridin-3-yl)amino)nicotinamide] | < 0.01 µM | 3 to 6 µM |
| CCOC[C@@H](Nc1nc(Nc2cncc3c2cnn3CC)c(C(N)=O)cc1F)[C@H](C)N [Example 2-324, 6-(((2S,3S)-3-amino-1-ethoxybutan-2-yl)amino)-2-((1-ethyl-1H-pyrazolo[3,4-c]pyridin-4-yl)amino)-5-fluoronicotinamide] | 0.01 to 0.05 µM | < 1 µM |
| COc1ccc([C@@H](Nc2nc(Nc3cnc(C)c(-n4nccn4)c3)c(C(N)=O)cc2F)[C@H](C)N)cc1 [Example 2-338, 6-(((1R,2S)-2-amino-1-(4-methoxyphenyl)propyl)amino)-5-fluoro-2-((6-methyl-5-(2H-1,2,3-triazol-2-yl)pyridin-3-yl)amino)nicotinamide] | 0.01 to 0.05 µM | < 1 µM |
| NC[C@@H](Cc1ccccc1)Nc1nc(Nc2cnc(N3CCOCC3)c(F)c2)c(C(N)=O)cc1F [Example 2-365, (R)-6-((1-amino-3-phenylpropan-2-yl)amino)-5-fluoro-2-((5-fluoro-6-morpholinopyridin-3-yl)amino)nicotinamide] | 0.05 to 0.1 µM | < 1 µM |
| Cc1ncc(Nc2nc(N[C@@H]([C@H](C)N)[C@H]3CC3(C)C)c(F)cc2C(N)=O)cc1-n1nccn1 [Example 2-380, 6-(((1R,2S)-2-amino-1-((S)-2,2-dimethylcyclopropyl)propyl)amino)-5-fluoro-2-((6-methyl-5-(2H-1,2,3-triazol-2-yl)pyridin-3-yl)amino)nicotinamide] | < 0.01 µM | 1 to 3 µM |
| NC(=O)c1cc(F)c(N[C@@H]2CCCC[C@@H]2N)nc1Nc1cncc2c1cnn2CC(F)F [Example 2-393, 6-(((1R,2S)-2-aminocyclohexyl)amino)-2-((1-(2,2-difluoroethyl)-1H-pyrazolo[3,4-c]pyridin-4-yl)amino)-5-fluoronicotinamide] | < 0.01 µM | 1 to 3 µM |
| NC(=O)c1cc(F)c(N[C@@H]2CCOC[C@@H]2N)nc1Nc1cncc2c1cnn2CC(F)F [Example 2-394, 6-(((3R,4R)-3-aminotetrahydro-2H-pyran-4-yl)amino)-2-((1-(2,2-difluoroethyl)-1H-pyrazolo[3,4-c]pyridin-4-yl)amino)-5-fluoronicotinamide] | < 0.01 µM | 3 to 6 µM |
